Experiments:
HL-60 Bcl-2 cells = assay: DNA fragmentation (release of 3H-labeled DNA fragments) in Bcl-2-transfected HL-60 cells; assay type: cell-based, human
[1] = Cytotoxicity to normal venous endothelial cells (MTT dye reduction assay); assay type: cell-based, human; conditions: human, normal venous endothelial cells, 6 h
[2] = system: Normal human venous endothelial cells; assay: as above; assay type: cell-based
Ramos B lymphoma cells = assay: Dox cytotoxicity by trypan blue exclusion in Ramos cells; assay type: cell-based; conditions: 24 hr
Protocol: In the present study, the sensitizing activity of W-188 and W-143 was tested in the Raji and Ramos cell lines. Since these two human B lymphoma lines naturally express high levels of anti-apoptotic Bcl-2 proteins, they may be more clinically relevant than the transfected HL-60-Bcl-2 line.
The sensitizing effects of W-143 and W-188 were first tested on these lines in vitro. […] Ramos cells were cultured with different concentrations of Dox with and without W-143 or W-188 at 20 μg/ml for 24 hr, and then viability assessed microscopically by counting at least 100 cells.

[3] = system: Nuclei from HL-60 Bcl-2 cells; assay: AP24-induced DNA fragmentation in nuclei isolated from pretreated cells; assay type: cell-based, human; conditions: for % DNA Fragmentation: cells incubated with W-188 5 μg/ml 4 hr, 20 hr assay
From the text: Nuclei isolated from HL-60-Bcl-2 cells were resistant to AP24-induced DNA fragmentation, as expected (Wright, S. C., et al., Cancer Res., 1998, 58:5570).

HS-treated U937 cells = assay: DNA fragmentation in heat shock-treated U937 cells; assay type: cell-based
Protocol: U937 cells received either no heat shock (HS) treatment or HS treatment at 42° C. for 30 min followed by recovery for 3 hr. The cells were then treated with etoposide or TNF with and without W-188, which alone was nontoxic. After 3 hr, DNA fragmentation was measured by release of ^3H-labeled DNA. As expected, U937 cells exposed to HS treatment were completely resistant to etoposide or TNF-induced DNA fragmentation (FIG. 7).

HL-60-Bcl-2 cells = assay: 10 day colony formation assay, HL-60-Bcl-2; assay type: cell-based, human; conditions: not shown
From the text: LY-ar was highly resistant to apoptosis induced by y-radiation. […] The apparent selective effects of W-188 may be due to the preferential intracellular accumulation of porphyrin compounds in transformed cells as opposed to normal cells reported previously (Bugelski, P. J., et al., Cancer Res., 1981, 41:4606).

overexpression of Bcl-2 = assay: Comparison with compounds reported to counteract Bcl-2; assay type: cell-based; conditions: at 2.5 [M; data not shown
From the text: W-188 was then compared to other compounds previously reported to counteract Bcl-2 (Marchetti, P., et al., J. Immunol., 1996, 157:4830; Hirsch, T., et al., Exp. Cell Res., 1998, 241:426).

caspase 3 = assay: Caspase 3 activity (DEVDase); assay type: cell-based
From the text: However, more recent findings indicate that W-188 may also downregulate expression of endogenous Bcl-2 in cells that naturally have high levels of this protein.

Bcl-2 = assay: Expression of Bcl-2 protein in HL-60-Bcl-2 cells; assay type: cell-based, human; conditions: W-188 + etoposide / chemotherapeutic drugs, in vitro
PW cells = assay: Subcellular distribution of W-188 in PW cells (absorbance at 380 nm); assay type: in vitro ADME, human
Protocol: A method to measure the subcellular localization of this compound was developed by the inventors of the present invention. Because of its distinctive absorbance spectrum, W-188 can be detected in cell and tissue extracts by measuring absorbance at 380 nm, and quantitated relative to a standard curve constructed with known amounts of W-188. HL-60 and PW cells containing vector control or overexpressing Bcl-2 were incubated with W-188 followed by cell lysis and isolation of nuclei, mitochondria, and cytotol by differential centrifugation.
Furthermore, it can be seen that nuclei and mitochondria from cells overexpressing Bcl-2 accumulated higher levels of W-188 than the vector control cells. These findings are consistent with the hypothesis that W-188 may counteract the protective effects of Bcl-2 mediated at both the mitochondria as well as the nucleus.

HL-60-Bcl-2 xenograft = HL-60-Bcl-2 xenograft growth in nude mice; assay type: in vivo; conditions: single dose
Protocol: Groups of five nude mice were injected s.c. with 5×10^6 HL-60-Bcl-2 cells, and tumors allowed to grow to a size of 7-10 mm. Tumors were then exposed to a single dose of γ-radiation, a single dose of W-188 or vehicle control, or a single dose of both γ-radiation and W-188. Tumor growth was monitored every other day, and when the tumor volume increased four fold, the animals were sacrificed.

mice = assay: Histopathological analysis of internal organs after xenograft treatment; assay type: in vivo, nude mice; conditions: radiation + W-188 200 mg/kg; thirty days after treatment
Protocol: Thirty days after treatment, three mice that were given radiation+W-188 200 mg/kg (the optimal treatment in this experiment) were sacrificed and internal organs removed and processed for histopathological analysis by a board-certified pathologist at a commercial lab.

CCC1=C(C)C(/C=C2\NC(=O)C(C)=C2CC)=NC/1=C\c1[nH]c(/C=C2\NC(=O)C(C)=C2CC)c(C)c1CC [W-188, etiobiliverdin-IV]
% DNA Fragmentation (HL-60 Bcl-2 cells; Exp 1, etoposide 5 μM + compound 5 μM): 40% | % DNA Fragmentation (HL-60 Bcl-2 cells; Exp 1, etoposide 5 μM + compound 10 μM): 76% | % DNA Fragmentation (HL-60 Bcl-2 cells; Exp 2, etoposide 10 μM + compound 10 μM): 62% | % DNA Fragmentation (HL-60 Bcl-2 cells; Exp 3, etoposide 5 μM + compound 10 μM): 92% | % DNA Fragmentation (HL-60 Bcl-2 cells; Exp 4, etoposide 5 μM + compound 10 μM): 59% | % DNA Fragmentation (HL-60 Bcl-2 cells; Exp 5, etoposide 10 μM + compound 10 μM): 55% | Sensitization to DNA fragmentation induced by TNF, etoposide and UV light (HL-60 Bcl-2 cells; TNF 5 ng/ml, etoposide 20 μM, UV 0.08 J/cm^2, 5 h, FIG. 4A): dose-dependently sensitized HL-60 Bcl-2 cells to DNA fragmentation induced by all three agents | Optimal doses giving DNA fragmentation comparable with HL-60 neo cells (HL-60 Bcl-2 cells; TNF, etoposide or UV, 5 h): 25 to 50 µg/mL | Toxicity of compound alone (HL-60 Bcl-2 cells; W-188 alone, no apoptosis inducer): nontoxic | Bcl-2-sensitizing activity (in words) (HL-60 Bcl-2 cells; tumor cells overexpressing Bcl-2, Table 4): most potent | cytotoxicity at 6 h, 25 μg/mL ([1]; W-188 25 μg/mL, etoposide 0 μM): 7 ± 1.5% | cytotoxicity at 6 h, 50 μg/mL ([1]; W-188 50 μg/mL, etoposide 0 μM): 22 ± 2% | cytotoxicity at 6 h, 25 μg/mL ([1]; YW-200 0.01 μM + W-188 25 μg/mL): 38 ± 4.9% | cytotoxicity at 6 h, 50 μg/mL ([1]; YW-200 0.01 μM + W-188 50 μg/mL): 59 ± 2.2% | cytotoxicity at 6 h, 25 μg/mL ([1]; etoposide 100 μM + W-188 25 μg/mL): 11 ± 1.5% | cytotoxicity at 6 h, 50 μg/mL ([1]; etoposide 100 μM + W-188 50 μg/mL): 21 ± 1.6% | Effect on toxic effects of etoposide on normal cells [2]: did not increase the toxic effects of etoposide | Augmentation of killing of endothelial cells by etoposide or YW-200 ([2]; W-188 at concentrations as high as 50 μg/mL): did not augment the killing of endothelial cells by etoposide or YW-200 | Toxicity of compound alone (Ramos B lymphoma cells; 20 μg/ml, no Dox): completely nontoxic | Increase of cytotoxicity mediated by Dox (Ramos B lymphoma cells; compound 20 μg/ml + Dox, FIG. 6): over two fold | % DNA Fragmentation ([3]; AP24 dilution 1:10): 44 ± 4.8% | % DNA Fragmentation ([3]; AP24 dilution 1:20): 19 ± 1.0% | Sensitivity of isolated nuclei to AP24-induced DNA fragmentation (in words) ([3]; pretreatment of HL-60-Bcl-2 cells): restored the sensitivity of the isolated nuclei to AP24-induced DNA fragmentation | Etoposide or TNF-induced DNA fragmentation after HS treatment (HS-treated U937 cells; HS 42° C. 30 min, recovery 3 hr, 3 hr assay, FIG. 7): levels of etoposide or TNF-induced DNA fragmentation comparable to that seen in normal U937 cells | Toxicity of compound alone (HS-treated U937 cells; W-188 alone): nontoxic | Sensitization to cell death mediated by etoposide and chlorambucil (HL-60-Bcl-2 cells): sensitized HL-60-Bcl-2 and LY-ar cells to cell death mediated by etoposide and chlorambucil | Reversal of the effect of overexpression of Bcl-2 (overexpression of Bcl-2): completely reversed the effect of overexpression of Bcl-2 | Caspase 3 activity (DEVDase) (caspase 3; W-188 + etoposide, HL-60-Bcl-2 and LY-ar cells): activation of caspase 3 | Caspase 3 activity (DEVDase) (caspase 3; W-188 alone): did not affect intracellular levels of GSH or caspase 3 activity | Expression of Bcl-2 protein (Bcl-2): did not downregulate the expression of Bcl-2 protein | W-188 (μg/mg protein), Cytosol (PW cells; PW Bcl-2): 0 μg/mg protein | W-188 (μg/mg protein), Mitochondria (PW cells; PW Bcl-2): 4.5 μg/mg protein | W-188 (μg/mg protein), Nuclei (PW cells; PW Bcl-2): 166 μg/mg protein | W-188 (μg/mg protein), Cytosol (PW cells; PW neo): 0 μg/mg protein | W-188 (μg/mg protein), Mitochondria (PW cells; PW neo): 2.5 μg/mg protein | W-188 (μg/mg protein), Nuclei (PW cells; PW neo): 133 μg/mg protein | Effect on tumor growth (HL-60-Bcl-2 xenograft; W-188 200 mg/kg alone): no significant effect | Effect on tumor growth (HL-60-Bcl-2 xenograft; W-188 400 mg/kg alone, p=0.005): significantly inhibited tumor growth | Effect on tumor growth (HL-60-Bcl-2 xenograft; γ-radiation + W-188 200 mg/kg, p=0.006): even greater inhibition of tumor growth compared to radiation alone | Histopathology of heart, lung, liver, spleen, kidney, stomach, intestine (mice): All tissues examined were found to be normal
